Experimental data: ChEMBL document CHEMBL5500363, “Discovery of novel ocotillol derivatives modulating glucocorticoid receptor/NF-κB signaling for the treatment of sepsis” (Eur J Med Chem, 2024)
Activity calls are given as the source filed them. No cut-off for these calls is given here.

What was measured:
Mus musculus [1] = assay: Anti-septic activity in LPS-induced sepsis BALB/c mouse assessed as reduction in hepatic hemorrhage at 7.5 to 30 mg/kg administered via gavage for 3 days followed by LPS treatment for 6 hrs by H and E staining based analysis; format: functional, organism-based; conditions: dose 7.5-30 mg/kg, time 78.0 hrs
RAW264.7 [2] = assay: Upregulation of glucocorticoid receptor mRNA expression in LPS-treated mouse RAW264.7 cells incubated for 24 hrs by qRT-PCR analysis; format: functional, cell-based
RAW264.7 [3] = assay: Anti-inflammatory activity in mouse RAW264.7 cells assessed as decrease in LPS-induced I-kappaB-alpha phosphorylation at 20 uM pretreated for 2 hrs followed by LPS stimulation for 24 hrs by Western blot analysis; format: functional, cell-based; conditions: time 26.0 hrs
Mus musculus [4] = assay: Anti-septic activity in LPS-induced sepsis BALB/c mouse assessed as reduction in pathological change in kidney at 7.5 to 30 mg/kg administered via gavage for 3 days followed by LPS treatment for 6 hrs by H and E staining based analysis; format: functional, organism-based; conditions: dose 7.5-30 mg/kg, time 78.0 hrs
RAW264.7 [5] = assay: Downregulation of glucocorticoid receptor in mouse RAW264.7 cells at 20 uM incubated for 24 hrs by Western blot analysis; format: functional, cell-based
RAW264.7 [6] = assay: Inhibition of LPS-induced NO production in mouse RAW264.7 cells at 5 uM pretreated for 2 hrs followed by LPS stimulation for 24 hrs by Griess assay relative to control; format: functional; conditions: time 26 hrs
RAW264.7 [7] = assay: Inhibition of LPS-induced NO production in mouse RAW264.7 cells at 10 uM pretreated for 2 hrs followed by LPS stimulation for 24 hrs by Griess assay relative to control; format: functional; conditions: time 26 hrs
[8] = biological target: T1, Glucocorticoid receptor (Mus musculus) (UniProt P06537); assay: Binding affinity to glucocorticoid receptor in mouse RAW264.7 cells assessed as thermal stability by measuring protein degradation at 47 degreeC at 10 to 40 uM pretreated for 24 hrs followed by heat exposure for 3 mins and subsequently incubated at room temperature for 3 mins by CETSA; format: cell-based; conditions: dose 10-40 µM, time 1446.0 min
T1 sequence (whole entry): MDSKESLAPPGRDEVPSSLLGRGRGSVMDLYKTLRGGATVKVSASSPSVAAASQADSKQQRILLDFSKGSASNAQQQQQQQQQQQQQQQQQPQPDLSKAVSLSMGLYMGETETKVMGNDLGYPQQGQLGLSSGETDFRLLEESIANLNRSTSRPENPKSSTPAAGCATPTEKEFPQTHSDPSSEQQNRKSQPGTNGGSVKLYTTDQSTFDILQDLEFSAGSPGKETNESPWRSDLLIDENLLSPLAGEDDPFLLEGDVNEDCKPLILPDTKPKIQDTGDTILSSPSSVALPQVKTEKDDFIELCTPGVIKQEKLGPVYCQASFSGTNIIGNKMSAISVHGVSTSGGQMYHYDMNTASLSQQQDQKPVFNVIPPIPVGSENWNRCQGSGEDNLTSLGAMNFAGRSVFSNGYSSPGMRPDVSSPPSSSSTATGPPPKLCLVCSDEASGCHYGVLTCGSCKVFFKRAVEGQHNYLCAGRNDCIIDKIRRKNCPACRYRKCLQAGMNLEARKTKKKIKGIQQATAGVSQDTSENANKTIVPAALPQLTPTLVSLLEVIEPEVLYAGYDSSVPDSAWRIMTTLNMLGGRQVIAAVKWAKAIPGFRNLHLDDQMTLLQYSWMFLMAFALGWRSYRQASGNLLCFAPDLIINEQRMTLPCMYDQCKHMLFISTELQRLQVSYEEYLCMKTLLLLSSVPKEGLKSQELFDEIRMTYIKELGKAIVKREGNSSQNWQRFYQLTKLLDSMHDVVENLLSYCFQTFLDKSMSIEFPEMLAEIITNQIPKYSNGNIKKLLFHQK

[9] = biological target: T1, Glucocorticoid receptor (Mus musculus); assay: Binding affinity to glucocorticoid receptor in mouse RAW264.7 cells assessed as increase in thermal stability at 47 degreeC pretreated for 24 hrs followed by heat exposure for 3 mins and subsequently incubated at room temperature for 3 mins by CETSA; format: cell-based; conditions: dose 2.5-40 µM, time 1446.0 min
Mus musculus [10] = assay: Anti-septic activity in LPS-induced sepsis BALB/c mouse assessed as reduction in serum ALT level at 30 mg/kg administered via gavage for 3 days followed by LPS treatment for 6 hrs; format: functional, organism-based; conditions: time 78.0 hrs
Mus musculus [11] = assay: Downregulation of p65 phosphorylation in liver of LPS-induced sepsis BALB/c mouse model at 7.5 to 30 mg/kg administered via gavage for 3 days followed by LPS treatment for 6 hrs by Western blot analysis; format: functional, organism-based; conditions: dose 7.5-30 mg/kg, time 78.0 hrs
Mus musculus [12] = assay: Anti-septic activity in LPS-induced sepsis BALB/c mouse assessed as body weight recovery at 7.5 to 30 mg/kg administered via gavage for 3 days followed by LPS treatment for 6 hrs; format: functional, organism-based; conditions: dose 7.5-30 mg/kg, time 78.0 hrs
RAW264.7 [13] = assay: Effect on KLF9 mRNA expression in mouse RAW264.7 cells by qPCR analysis; format: functional, cell-based
RAW264.7 [14] = assay: Anti-inflammatory activity in LPS-treated mouse RAW264.7 cells assessed as reversal of nuclear translocation of p65 at 20 uM pretreated for 2 hrs followed by LPS stimulation for 24 hrs by immunofluorescence analysis; format: functional, cell-based; conditions: time 26.0 hrs
RAW264.7 [15] = assay: Anti-inflammatory activity in mouse RAW264.7 cells assessed as decrease in LPS-induced p65 phosphorylation at 20 uM pretreated for 2 hrs followed by LPS stimulation for 24 hrs by Western blot analysis; format: functional, cell-based; conditions: time 26.0 hrs
Mus musculus [16] = assay: Anti-septic activity in LPS-induced sepsis BALB/c mouse assessed as reduction in serum CRP level at 7.5 to 30 mg/kg administered via gavage for 3 days followed by LPS treatment for 6 hrs; format: functional, organism-based; conditions: dose 7.5-30 mg/kg, time 78.0 hrs
RAW264.7 [17] = assay: Inhibition of LPS-induced NO production in mouse RAW264.7 cells pretreated for 2 hrs followed by LPS stimulation for 24 hrs by Griess assay; format: functional, cell-based
RAW264.7 [18] = assay: Anti-inflammatory activity in mouse RAW264.7 cells assessed as inhibition of LPS-induced IL-6 production pretreated for 2 hrs followed by LPS stimulation for 24 hrs by ELISA; format: functional, cell-based; conditions: dose 5-20 µM
RAW264.7 [19] = assay: Inhibition of LPS-induced NO production in mouse RAW264.7 cells at 20 uM pretreated for 2 hrs followed by LPS stimulation for 24 hrs by Griess assay relative to control; format: functional; conditions: time 26 hrs
Mus musculus [20] = assay: Upregulation of glucocorticoid receptor expression in liver of LPS-induced sepsis BALB/c mouse model at 7.5 to 30 mg/kg administered via gavage for 3 days followed by LPS treatment for 6 hrs by Western blot analysis; format: functional, organism-based; conditions: dose 7.5-30 mg/kg, time 78.0 hrs
Mus musculus [21] = assay: Anti-septic activity in LPS-induced sepsis BALB/c mouse assessed as reduction in serum AST level at 30 mg/kg administered via gavage for 3 days followed by LPS treatment for 6 hrs; format: functional, organism-based; conditions: time 78.0 hrs
RAW264.7 [22] = assay: Anti-inflammatory activity in mouse RAW264.7 cells assessed as inhibition of LPS-induced TNF-alpha production pretreated for 2 hrs followed by LPS stimulation for 24 hrs by ELISA; format: functional, cell-based; conditions: dose 5-20 µM, time 26.0 hrs
[23] = biological target: T1, Glucocorticoid receptor (Mus musculus); assay: Stabilization of glucocorticoid receptor in mouse RAW264.7 cells assessed as blockade of CHX-induced protein degradation at 20 uM incubated for 24 hrs by Western blot analysis; format: cell-based
Mus musculus [24] = assay: Anti-septic activity in LPS-induced sepsis BALB/c mouse assessed as reduction in serum IL-6 level at 7.5 to 30 mg/kg administered via gavage for 3 days followed by LPS treatment for 6 hrs by ELISA; format: functional, organism-based; conditions: dose 7.5-30 mg/kg, time 78.0 hrs

**Q.** With `CC(C)(C)OC(=O)CCC(=O)Nc1nc2c(s1)C[C@]1(C)[C@H]3C[C@@H](O)[C@@H]4C([C@]5(C)CC[C@@H](C(C)(C)O)O5)CC[C@@]4(C)[C@]3(C)CC[C@H]1C2(C)C` (some centres undefined) as the molecule, how does the Activity (Mus musculus [1]) read?
**A.** Active

**Q.** And the Activity (RAW264.7 [2])?
**A.** Active

**Q.** And the Activity (RAW264.7 [3])?
**A.** Active

**Q.** And the Activity (Mus musculus [4])?
**A.** Active

**Q.** And the Activity (RAW264.7 [5])?
**A.** inactive

**Q.** What about the inhibition at 5 µM (RAW264.7 [6]) of the same molecule?
**A.** 30.3%

**Q.** What about the inhibition at 10 µM (RAW264.7 [7]) of the same molecule?
**A.** 52.6%

**Q.** And the Activity [8]?
**A.** Active

**Q.** What about the Activity [9] of the same molecule?
**A.** Dose-Dependent Effect

**Q.** What about the Activity (Mus musculus [10]) of the same molecule?
**A.** Active

**Q.** And the Activity (Mus musculus [11])?
**A.** Active

**Q.** What about the Activity (Mus musculus [12]) of the same molecule?
**A.** Active

**Q.** What about the Activity (RAW264.7 [13]) of the same molecule?
**A.** inactive

**Q.** And the Activity (RAW264.7 [14])?
**A.** Active

**Q.** What about the Activity (RAW264.7 [15]) of the same molecule?
**A.** Active

**Q.** And the Activity (Mus musculus [16])?
**A.** Active

**Q.** What about the IC50 (RAW264.7 [17]) of the same molecule?
**A.** 3.38 µM

**Q.** What about the inhibition (RAW264.7 [18]) of the same molecule?
**A.** Dose-Dependent Effect

**Q.** What about the inhibition at 20 µM (RAW264.7 [19]) of the same molecule?
**A.** 86%

**Q.** And the Activity (Mus musculus [20])?
**A.** Active

**Q.** What about the Activity (Mus musculus [21]) of the same molecule?
**A.** Active

**Q.** What about the inhibition (RAW264.7 [22]) of the same molecule?
**A.** Dose-Dependent Effect

**Q.** And the Activity [23]?
**A.** Active

**Q.** What about the Activity (Mus musculus [24]) of the same molecule?
**A.** Active
